Assay results published in publication PMC9068900, “Pharmacology of Kappa Opioid Receptors: Novel Assays and Ligands” (Frontiers in Pharmacology, 2022).
“And” between values parts separate entries of the source, which are not always exact repeats. Equal values may be shown once. Read-outs that look alike come from different tables or passages of the source. Non-standard residues stand in square brackets, D forms with d. Residues, ends and D or L forms follow the SMILES beside them. Dmt = Cc1cc(O)cc(C)c1C[C@H](N)C(=O)O; Tic = O=C(O)[C@@H]1Cc2ccccc2CN1

Assays:
[1] = system: kappa opioid receptor; conditions: ref Simonin et al., 1995; cited from earlier work
[2] = system: kappa opioid receptor; design: method as in Zhu et al., 1997; Birch et al., 1987; conditions: ref Zhu et al., 1997; Birch et al., 1987; cited from earlier work
[3] = target: T1, human kappa opioid receptor (Homo sapiens, UniProt P41145); test: Calcium mobilization in CHO cells co-expressing the kappa receptor and Gαqi5; assay type: cell-based; design: expressed in transfected cells
[4] = target: T1, human kappa opioid receptor; test: Dynamic mass redistribution (DMR) label-free assay in CHO cells; assay type: cell-based; design: expressed in transfected cells
Procedure: DMR experiments were conducted as previously described ([Malfacini et al., 2018]). Chinese Hamster Ovary (CHO) cells stably expressing the human kappa receptor were kindly provided by L Toll (Torrey Pines Institute for Molecular Studies, Port St. Lucie, United States). Cells were cultured in Dulbecco’s Modified Eagle Medium: Nutrient Mixture F-12 (DMEM/F12) supplemented with 10% (v/v) Fetal Calf Serum (FCS), 100 U/ml penicillin, 100 μg/ml streptomycin, 2 mM L-glutamine, 15 mM HEPES. The medium was supplemented with 400 μg/ml G418 to maintain expression. Cells were seeded at a density of 45,000 cells/well in 120 μL into fibronectin-coated EnspireTM-LC 96-wells plates and cultured for 20 h to form a confluent monolayer. On the day of the experiment, cells were washed twice and maintained with assay buffer: HBSS with 20 mM HEPES, 0.01% BSA fraction V; for 90 min before the experiment. DMR was monitored in real-time with a temporal resolution of 44 s throughout the assay. Experiments were performed at 37°C, using an EnSight Multimode Plate Reader (PerkinElmer). A 5 min baseline was first established, followed by adding compounds manually in a volume of 40 μL and recording compound-triggered DMR signal for 60 min. In antagonism experiments, ligands tested as antagonists were added 30 min before agonist administration. Maximum picometers (pm) modification (peak) were used to determine agonist response after baseline normalization.
The pharmacological terminology is consistent with the International Union of Basic and Clinical Pharmacology (IUPHAR) recommendations ([Neubig et al., 2003]). Concentration-response curves to agonists were fitted to the four-parameter logistic nonlinear regression model as follows: Effect=Basal+ Emax−Basal/1+10^ (LogEC50−Log[ligand]) × HillSlope
If unsurmountable antagonist behavior was detected, the pKB value was derived as follows: a double-reciprocal plot of equi-effective concentrations of agonist (A) in the absence (1/A) and presence (1/A’) of the antagonist (B) was constructed and pKB was derived from the equation pKB = log {(slope-1)/[B]} ([Kenakin, 2009]).

[5] = target: T1, human kappa opioid receptor; test: biochemical; assay type: biochemical; design: 13-mer linker peptide […]; expressed in transfected cells; enriched plasma membranes used
[6] = target: T1, human kappa opioid receptor; test: BRET kappa-β-arrestin 2 interaction, SH-SY5Y whole cells; assay type: cell-based; design: 13-mer linker peptide […]; expressed in transfected cells; enriched plasma membranes used
[7] = system: kappa opioid receptor; design: method as in Guerrini et al., 1998; conditions: ref Guerrini et al., 1998; cited from earlier work
[8] = system: guinea pig ileum; design: method as in Guerrini et al., 1998; conditions: ref Guerrini et al., 1998; cited from earlier work
[9] = system: rabbit jejunum; design: method as in Guerrini et al., 1998; conditions: ref Guerrini et al., 1998; cited from earlier work

T1 sequence (P41145 whole entry): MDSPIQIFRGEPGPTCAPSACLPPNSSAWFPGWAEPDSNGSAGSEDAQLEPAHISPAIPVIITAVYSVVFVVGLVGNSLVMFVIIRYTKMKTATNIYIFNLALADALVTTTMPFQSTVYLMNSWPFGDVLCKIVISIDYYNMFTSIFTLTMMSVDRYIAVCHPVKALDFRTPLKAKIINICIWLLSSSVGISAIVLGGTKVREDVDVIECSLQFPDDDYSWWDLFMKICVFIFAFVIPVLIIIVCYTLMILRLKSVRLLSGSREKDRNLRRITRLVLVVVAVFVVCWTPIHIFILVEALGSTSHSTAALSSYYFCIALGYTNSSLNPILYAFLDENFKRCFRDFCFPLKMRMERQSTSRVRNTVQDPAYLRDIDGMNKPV

In the case of `Oc1ccc2c3c1O[C@H]1c4[nH]c5c(c4C[C@@]4(O)[C@@H](C2)N(CC2CC2)CC[C@]314)C[C@@]1(O)[C@H]2Cc3ccc(O)c4c3[C@@]1(CCN2CC1CC1)[C@H]5O4` [Nor-BNI, Nor-Binaltorphimine], the Affinity [1] is given as “approximately 1 nM”, the Potency [2] is given as 0.1 nM and the “Calcium Mobilization pEC50 (CL95%)” value ([3]; CHO cells, human kappa + Gαqi5) is given as “inactive”. The “Calcium Mobilization α (intrinsic activity: maximal effect divided by that of Dyn A)” value ([3]; CHO cells, human kappa + Gαqi5) was “inactive”, the “Stimulation of calcium flux (in words)” value ([3]; tested as agonist) was “completely inactive” and the “DMR pEC50 (CL95%)” value ([4]; CHO cells, human kappa) was “inactive”. For the same compound, the “DMR α” value ([4]; relative to Dyn A) was “inactive”, the “Effect on DMR baseline (in words)” value ([4]; tested as agonist) was “did not modify DMR baseline” and the “Emax ± sem” value ([5]; 5 min, fraction of Dyn A maximal effect) was “inactive”. The “pEC50 (CL95%)” value ([5]; 5 min after compound addition) was “inactive”, the “BRET β-Arrestin 2 pEC50 (CL95%)” value ([6]; SH-SY5Y cells, kappa-RLuc/β-arrestin 2-RGFP) was “inactive” and the “BRET β-Arrestin 2 α” value ([6]; relative to Dyn A) was “inactive”.
For `CC[C@H](C)[C@H](NC(=O)[C@H](CCCNC(=N)N)NC(=O)[C@H](CCCNC(=N)N)NC(=O)[C@H](CC(C)C)NC(=O)[C@H](Cc1ccccc1)NC(=O)CNC(=O)[C@@H]1Cc2ccccc2CN1C(=O)[C@@H](N)Cc1c(C)cc(O)cc1C)C(=O)N[C@@H](CCCNC(=N)N)C(=O)N1CCC[C@H]1C(=O)N[C@@H](CCCCN)C(N)=O` [[Dmt^1,Tic^2], [Dmt^1,Tic^2]Dyn(1-11)-NH2] (H-[Dmt][Tic]GFLRRIRPK-NH2; N-terminus assumed), the “Affinity at the mu opioid receptor relative to kappa (in words)” value [7] is listed as “equal affinity”, the Affinity values [7] is listed as 3.3—4.3 nM and the “Higher affinity at the delta opioid receptor” value [7] is listed as 10 fold. For the same compound, the Antagonist potency [8] was 90 nM, the Antagonist potency [9] was 8 nM and the “Calcium Mobilization pA2 (CL95%)” value [3] was 6.6. For the same compound, the “Calcium Mobilization pEC50 (CL95%)” value [3] was “∼6.9”, the “Calcium Mobilization α (intrinsic activity: maximal effect divided by that of Dyn A)” value [3] was 0.15 and the “Increase of calcium levels” value [3] was 50 % over the baseline. The “Calcium Mobilization pA2 (CL95%)” value ([3]; cho cells) was 6.6 (6.16–7.14), the “DMR pA2 (CL95%)” value [4] was 7.7 and the “DMR pEC50 (CL95%)” value [4] was 7.11 (5.61–8.61). The “DMR α” value [4] was 0.47, the “Effect on DMR baseline (in words)” value [4] was “slightly stimulated the DMR response only at micromolar concentrations” and the “DMR pA2 (CL95%)” value ([4]; cho cells) was 7.7 (7.11–8.29). The “BRET G Protein pA2 (CL95%)” value [5] was 7.5, the “BRET G Protein pEC50 (CL95%)” value [5] was 6.95 (6.14–7.75) and the “BRET G Protein α” value [5] was 0.35. For the same compound, the “Emax ± sem” value [5] was 0.30 ± 0.02 and 0.35 ± 0.06, the “pEC50 (CL95%)” value [5] was 7.09 and the “BRET G Protein pA2 (CL95%)” value ([5]; sh-sy5y cell membranes) was 7.5 (5.35–9.65). For the same compound, the “BRET β-Arrestin 2 pA2 (CL95%)” value [6] was 7.3, the “BRET β-Arrestin 2 pEC50 (CL95%)” value [6] was “inactive” and the “BRET β-Arrestin 2 α” value [6] was “inactive”. The “Residual agonist activity (in words)” value [6] was “did not show any residual agonist activity” and the “BRET β-Arrestin 2 pA2 (CL95%)” value ([6]; sh-sy5y cells) was 7.3 (6.5–8.1).
